We go through three molecules from patent US10596172B2 (Celgene CAR LLC, priority 2008, dated 2020).

Each structure is given as a SMILES string. Read-outs that look alike come from different tables or passages of the source.

In one test the target is Erbb4 kinase domain (Homo sapiens (Human), UniProt Q15303). The experiment in a line: Mass spectrometry for ERBB4. The class given is binding. To be noted: 60 minutes at 10-fold excess of compound. As to the method:
Erbb4 kinase domain (Upstate) was incubated with compound for 60 minutes at 10-fold excess of compound I-4 and I-11 to protein. 1 μl aliquots of the samples (total volume of 4.24 ul) were diluted with 10 μl of 0.1% TFA prior to micro C4 ZipTipping directly onto the MALDI target using Sinapinic acid as the desorption matrix (10 mg/ml in 0.1% TFA:Acetonitrile 50:50). For intact protein mass measurement the instrument was set in Linear mode using a pulsed extraction setting of 16,952 for the myoglobin standard used to calibrate the instrument (Shimadzu Axima TOF^2).
Intact ErbB4 protein occurs at MH+ of 35850 with corresponding sinapinic (matrix) adducts occurring about 200 Da higher. A stoichiometric incorporation of the test compound (I-4 and I-11) (Mw of 410 Da) produced a new mass peak which is approximately 410 Da higher (MH+ of 36260).

In test [1] the target is T1, JAK3 (Homo sapiens (Human), UniProt P52333). The experiment in a line: Mass spectrometry for Janus-3 kinase (JAK3). Type of test: binding. To be noted: 3 hrs at 10x excess, tryptic digest. As to the method: JAK3 kinase (33 pmols; Invitrogen) was incubated with (I-7) (327 pmols) for 3 hrs at 10× excess prior to tryptic digestion. Iodoacetamide was used as the alkylating agent after compound incubation. For tryptic digests a 5 ul aliquot (5.5 pmols) was diluted with 15 ul of 0.1% TFA prior to micro C18 Zip Tipping directly onto the MALDI target using alpha cyano-4-hydroxy cinnamic acid as the matrix (5 mg/ml in 0.1% TFA:Acetonitrile 50:50).
T1 sequence (P52333 whole entry): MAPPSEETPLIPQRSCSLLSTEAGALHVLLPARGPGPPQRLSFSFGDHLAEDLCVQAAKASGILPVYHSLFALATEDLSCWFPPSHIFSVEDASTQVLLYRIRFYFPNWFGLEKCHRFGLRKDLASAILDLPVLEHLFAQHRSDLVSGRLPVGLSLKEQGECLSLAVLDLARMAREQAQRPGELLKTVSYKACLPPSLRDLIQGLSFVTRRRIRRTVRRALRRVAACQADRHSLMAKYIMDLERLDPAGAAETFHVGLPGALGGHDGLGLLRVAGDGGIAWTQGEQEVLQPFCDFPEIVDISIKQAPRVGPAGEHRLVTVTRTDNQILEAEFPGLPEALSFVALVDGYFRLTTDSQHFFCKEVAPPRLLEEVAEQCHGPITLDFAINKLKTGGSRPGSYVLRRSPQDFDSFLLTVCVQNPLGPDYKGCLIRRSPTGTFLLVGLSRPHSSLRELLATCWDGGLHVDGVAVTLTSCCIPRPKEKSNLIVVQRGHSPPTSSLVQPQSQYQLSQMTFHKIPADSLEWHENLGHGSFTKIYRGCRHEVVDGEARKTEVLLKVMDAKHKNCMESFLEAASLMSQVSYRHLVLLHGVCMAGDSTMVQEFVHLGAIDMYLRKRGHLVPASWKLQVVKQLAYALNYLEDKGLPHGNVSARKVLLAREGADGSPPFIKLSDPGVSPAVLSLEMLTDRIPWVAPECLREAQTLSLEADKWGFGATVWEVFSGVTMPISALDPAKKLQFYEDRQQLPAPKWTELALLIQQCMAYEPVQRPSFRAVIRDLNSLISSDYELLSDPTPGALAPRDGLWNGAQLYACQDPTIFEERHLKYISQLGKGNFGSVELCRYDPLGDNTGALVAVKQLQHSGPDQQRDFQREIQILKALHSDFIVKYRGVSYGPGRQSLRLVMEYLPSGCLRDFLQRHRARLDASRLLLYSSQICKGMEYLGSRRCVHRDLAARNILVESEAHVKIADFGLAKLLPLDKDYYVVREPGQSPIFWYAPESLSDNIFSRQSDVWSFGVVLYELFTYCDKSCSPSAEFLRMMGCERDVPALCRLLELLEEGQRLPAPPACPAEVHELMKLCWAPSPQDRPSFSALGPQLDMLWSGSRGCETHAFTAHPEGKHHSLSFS
As depicted in FIG. 11, the expected peptide ([…]) to be modified was immediately evident as the largest peak at MH+ of 1725.88. This is the mass to be expected when compound I-7, with an adduct mass of 345.16, is added to the peptide mass of 1380.70. […] There was also evidence for a number of other modified peptides, however, their signals were low.
To further verify the presence of the modified peptides with compound I-7, the peptides at MH+ of 1725.88 and 1118.55 were subjected to PSD (MS/MS) analysis. A correlational analysis with the homo sapien database identified the correct peptides as being modified by I-7.
For tryptic digests the instrument was set in Reflectron mode with a pulsed extraction setting of 2200. Calibration was done using the Laser Biolabs Pep Mix standard ([…], 1296.69, 1672.92, 2093.09, 2465.20). […]

Test [2] deals with T1, JAK3. In words: Omnia assay for potency assessment against the active form of JAK3. Type of test: biochemical. To be noted: read-out: JAK3 Inhibition.
Test [3] deals with T2, BTK (Homo sapiens (Human), UniProt Q06187). The experiment in a line: Mass spectrometry for BTK (covalent modification of intact protein). Type of test: binding. To be noted: 1 hr, 10x fold excess of compound. As to the method: Intact BTK was incubated for 1 hr at a 10× fold excess of I-7 to protein. Aliquots (2 μl) of the samples were diluted with 10 μl of 0.1% TFA prior to micro C4 ZipTipping directly onto the MALDI target using Sinapinic acid as the desorption matrix (10 mg/ml in 0.1% TFA:Acetonitrile 20:80).
T2 sequence (Q06187 whole entry): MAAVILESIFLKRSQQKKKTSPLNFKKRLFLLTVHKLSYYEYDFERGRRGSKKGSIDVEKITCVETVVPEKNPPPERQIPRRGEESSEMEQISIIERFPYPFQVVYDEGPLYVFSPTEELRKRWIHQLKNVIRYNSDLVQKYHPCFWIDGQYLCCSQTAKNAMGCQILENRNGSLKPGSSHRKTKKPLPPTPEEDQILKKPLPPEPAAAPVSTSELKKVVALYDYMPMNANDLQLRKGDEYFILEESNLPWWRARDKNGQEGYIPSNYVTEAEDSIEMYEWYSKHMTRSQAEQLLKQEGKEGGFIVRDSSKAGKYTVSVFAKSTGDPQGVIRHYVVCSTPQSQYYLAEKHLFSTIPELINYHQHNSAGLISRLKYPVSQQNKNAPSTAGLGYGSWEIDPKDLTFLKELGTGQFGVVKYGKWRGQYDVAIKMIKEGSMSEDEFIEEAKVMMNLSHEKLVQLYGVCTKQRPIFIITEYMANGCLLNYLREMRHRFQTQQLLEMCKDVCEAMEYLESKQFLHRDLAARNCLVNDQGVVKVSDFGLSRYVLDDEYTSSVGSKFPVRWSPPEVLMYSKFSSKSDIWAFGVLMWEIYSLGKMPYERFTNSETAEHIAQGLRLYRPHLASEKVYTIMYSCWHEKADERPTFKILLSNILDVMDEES

The next test relates to Human naïve B cells. The experiment in a line: Human primary B cell proliferation assay. To be noted: 5 μg/ml α-IgM 72 hours, 3H-thymidine incorporation. Type of test: cell-based. The protocol:
Human naïve B cells were purified from 100 mL whole blood using a MACS purification kit designed to isolate CD19+, IgD+ cells by negative selection. Purified naïve B cells were resuspended in RPMI complete and stimulated with 5 μg/ml α-IgM for 72 hours. ^3H-Thymidine was included in the culture media for the final 16 h, cells were harvested and ^3H incorporation measured. Inhibition of B cell proliferation correlates with inhibition of BTK substrate phosphorylation after α-IgM stimulation.
In general terms: Incorporation of labelled thymidine or its analogues reports DNA synthesis.

The subject of test [4] is B cell lymphoma cell lines. In words: B cell lymphoma proliferation assay. The class given is cell-based.
Test [5] has as its target T2, BTK. The experiment in a line: BTK occupancy from in vitro samples by ELISA (Ramos cells). Type of test: cell-based. As to the method:
In order to determine the amount of free BTK in cell or tissue lysates, an ELISA protocol was employed that utilizes a biotinylated probe compound that binds only to free, unoccupied BTK. The conjugated biotin is captured on a streptavidin-coated ELISA plate and detected with a mouse anti-BTK antibody (Becton Dickinson, Franklin Lakes, N.J., USA) and a secondary goat anti-mouse HRP antibody (Zymed, South San Francisco, Calif., USA).
(§1) All samples were prepared with equal concentrations of Biorad lysis buffer (Hercules, Calif., USA), 0.5% bovine serum albumin in PBS with 0.05% Tween-20 to give a final concentration of 1 μM I-215. Samples were incubated in a mixing plate for 1 hr at room temperature while shaking to allow probe compound I-215 to bind to free BTK. After incubation with I-215, samples were added to a washed, streptavidin-coated ELISA plate (Pierce, Rockford, Ill., USA) and incubated for 1 hr at room temperature while shaking. The plate was then washed with PBS containing 0.05% Tween-20 using an automatic plate washer. Anti-BTK antibody was prepared at 1:1000 dilution in 0.5% BSA in PBS (0.05% Tween-20) and added to the ELISA plate. The plate was incubated for 1 hr at room temperature while shaking. The plate was washed as described above and the secondary HRP antibody was prepared at 1:5000 dilution in 0.5% BSA in PBS (0.05% Tween-20). The plate was incubated and washed as described above. TMB was added to the plate, and OD650 was monitored until reaching 1 OD unit. The reaction was then stopped with addition of H2SO4. The plate was analyzed using Gen 5 software, and a 4 Parameter Logistic curve was employed to quantitate samples. Recombinant BTK (Invitrogen, Carlsbad, Calif., USA) was used for the standard curve.
A concentration designated as “A” is greater than 1 nM; a concentration designated as “B” is greater than 10 nM; and a concentration designated as “C” is greater than 50 nM.
(In an ELISA, binding on a coated surface is turned into a signal by an enzyme label.)

Test [6] has as its target T2, BTK. The experiment in a line: Human primary B cell covalent probe occupancy in vitro. The class given is cell-based. To be noted: human primary B cells, 1 h at 37° C. The protocol: as §1, with “The plate was incubated and washed as described above.” left out, “The reaction was then stopped with addition of H2SO4.” left out, “Recombinant BTK (Invitrogen, Carlsbad, Calif., USA) was used for the standard curve.” left out
Human primary B cells were isolated as described in Example 256, then resuspended in RPMI media (10% serum). The compound to be analyzed was added at a 1:1000 dilution to media. […] The supernatant was analyzed as described in Example 283 using I-215.

The target in test [7] is BTK (Canis lupus familiaris, UniProt A0A8I3P3Z9). The experiment in a line: Dog primary B cell covalent probe occupancy in vitro. The following applies: canine PBMCs, one hour at 37° C. Type of test: cell-based. The protocol: as §1, with “The reaction was then stopped with addition of H2SO4.” left out, “Recombinant BTK (Invitrogen, Carlsbad, Calif., USA) was used for the standard curve.” left out
Sequence of BTK (Canis lupus familiaris, UniProt A0A8I3P3Z9) (A0A8I3P3Z9 1-664): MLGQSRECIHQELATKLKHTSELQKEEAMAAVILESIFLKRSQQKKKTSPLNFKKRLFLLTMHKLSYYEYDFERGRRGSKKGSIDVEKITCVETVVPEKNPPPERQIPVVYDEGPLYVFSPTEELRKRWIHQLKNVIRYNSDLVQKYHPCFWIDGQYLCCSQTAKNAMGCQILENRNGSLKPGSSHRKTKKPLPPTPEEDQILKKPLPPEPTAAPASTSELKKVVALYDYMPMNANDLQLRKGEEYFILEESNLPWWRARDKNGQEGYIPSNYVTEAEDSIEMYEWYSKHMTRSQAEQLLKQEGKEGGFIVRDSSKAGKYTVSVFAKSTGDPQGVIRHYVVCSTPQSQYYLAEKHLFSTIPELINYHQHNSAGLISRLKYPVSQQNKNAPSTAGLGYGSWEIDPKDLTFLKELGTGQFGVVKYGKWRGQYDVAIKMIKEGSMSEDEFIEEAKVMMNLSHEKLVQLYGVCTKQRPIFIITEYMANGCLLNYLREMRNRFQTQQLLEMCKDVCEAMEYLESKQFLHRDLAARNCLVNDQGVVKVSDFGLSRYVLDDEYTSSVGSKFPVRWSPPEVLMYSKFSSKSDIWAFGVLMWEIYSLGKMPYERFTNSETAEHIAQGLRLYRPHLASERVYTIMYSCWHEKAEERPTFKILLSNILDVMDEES
Canine whole blood (30 mL) was diluted to 50 mL total with 1×PBS and layered on top of Histopaque-1077 (Sigma Aldrich). […] The supernatant was analyzed as described in Example 283 using I-215. […]

In test [8] the target is BTK (Rattus norvegicus, UniProt Q5S255). The experiment in a line: BTK occupancy from in vivo samples by ELISA. The following applies: po, rats dosed orally 30 mg/kg. As to the method: as §1
Sequence of BTK (Rattus norvegicus, UniProt Q5S255) (Q5S255 1-660): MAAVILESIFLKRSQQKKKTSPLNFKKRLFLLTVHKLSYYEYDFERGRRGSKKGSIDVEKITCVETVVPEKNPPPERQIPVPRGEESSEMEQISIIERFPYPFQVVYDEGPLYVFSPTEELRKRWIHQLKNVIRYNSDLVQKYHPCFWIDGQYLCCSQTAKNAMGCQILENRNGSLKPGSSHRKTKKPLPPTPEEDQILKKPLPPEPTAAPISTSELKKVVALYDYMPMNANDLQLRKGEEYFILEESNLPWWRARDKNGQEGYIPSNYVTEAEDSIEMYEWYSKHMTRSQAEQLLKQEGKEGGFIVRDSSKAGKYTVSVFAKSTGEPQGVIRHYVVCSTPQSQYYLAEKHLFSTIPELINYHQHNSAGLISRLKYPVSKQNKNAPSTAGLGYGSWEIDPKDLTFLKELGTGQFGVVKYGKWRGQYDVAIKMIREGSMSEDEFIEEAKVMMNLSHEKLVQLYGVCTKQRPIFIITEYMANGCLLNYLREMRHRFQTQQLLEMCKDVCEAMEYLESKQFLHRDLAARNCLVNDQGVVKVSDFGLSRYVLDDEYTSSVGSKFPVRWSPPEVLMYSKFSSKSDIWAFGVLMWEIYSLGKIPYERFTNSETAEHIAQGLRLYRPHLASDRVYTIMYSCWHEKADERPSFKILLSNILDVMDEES
Rats were dosed orally with 30 mg/kg of compound and spleens were harvested either 2 or 24 hours after compound treatment. Rat spleens were disrupted between two microscope slides coated with frosted glass to recover single cell suspensions. Red blood cells were lysed by incubating with RBC lysis buffer (Boston BioProducts) for 2 minutes at room temperature, the cells were then resuspended in RPMI complete media and pelleted by centrifugation. Rat B cells were isolated by positive selection with B220+ antibody-magnetic bead conjugates, purified by MACS column and lysed in Bio-Rad lysis buffer at a concentration of 10 million cells/100 μl. Lysates were analyzed employing the biotinylated probe compound I-215 in an ELISA protocol as described in detail in Example 278.

The mark [9] stands for this setting: Homo sapiens, DOHH-2, DOHH2 B cell lymphoma cell line, read-out: EC50 (μM) DOHH2.
Setting [10] is: Homo sapiens, WSUDLCL2, WSU-DLCL2 B cell lymphoma cell line, read-out: EC50 (μM) WSU-DLCL2.
The mark [11] stands for this setting: spleen B cells harvested 2 hours after treatment, read-out: % BTK Occupancy 2 h.
Where [12] appears, read: spleen B cells harvested 24 hours after treatment, read-out: % BTK Occupancy 24 h.

Sequence of Erbb4 kinase domain (Q15303 718-985): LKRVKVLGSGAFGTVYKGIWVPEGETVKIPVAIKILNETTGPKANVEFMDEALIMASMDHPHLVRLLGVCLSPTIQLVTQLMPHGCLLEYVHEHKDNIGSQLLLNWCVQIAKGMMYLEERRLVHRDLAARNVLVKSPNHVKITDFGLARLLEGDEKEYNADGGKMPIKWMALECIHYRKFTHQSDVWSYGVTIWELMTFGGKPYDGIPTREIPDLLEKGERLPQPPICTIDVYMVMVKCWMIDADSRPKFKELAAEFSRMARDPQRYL

For `Cc1cnc(Nc2cccc(S(N)(=O)=O)c2)nc1Nc1ccc2c(c1)CCN(C(=O)CCl)C2` [Compound I-11, 3-(4-(2-(2-chloroacetyl)-1,2,3,4-tetrahydroisoquinolin-6-ylamino)-5-methylpyrimidin-2-ylamino)benzenesulfonamide], the “covalent modification of ErbB4 by mass spectrometry” value at Erbb4 kinase domain is “covalent modification”. Also, the “covalent modification of JAK3 peptide LVMEYLPSGCLR (Cys909) by mass spectrometry” value on JAK3 [1] is “measurable modification”. The IC50 at JAK3 [2] was less than 0.01 µM.

By EC50 is commonly meant the concentration needed to bring the measured effect to its halfway point. Regarding `C=CC(=O)Nc1cccc(Nc2nc(Nc3ccc(OCCOC)c(F)c3)ncc2F)c1` [Compound I-96, N-(3-(2-(3-fluoro-4-(2-methoxyethoxy)phenylamino)-5-fluoropyrimidin-4-ylamino)phenyl)acrylamide], the “covalent modification of BTK by mass spectrometry” value at BTK [3] is given as “completely modify”. Moreover, the EC50 is 0.001 to 0.01 µM in the test on Human naïve B cells, 0.1 to 1 µM in test [4] (setting [9]) and 1 to 10 µM in [4] (setting [10]). The IC50 at JAK3 [2] was less than 0.01 µM. For the same molecule, the “>50% occupancy (concentration at which >50% of BTK is occupied)” value on BTK [5] is “A (greater than 1 nM)”. For the same molecule, the “>90% occupancy (concentration at which >90% of BTK is occupied)” value at BTK [5] is listed as “B (greater than 10 nM)”. Besides, the “concentration at which at least 50% of BTK is occupied” value at BTK [6] and at BTK [7] was “greater than 10 nM” throughout. In addition, the receptor occupancy at 30 mg/kg on BTK [8] (setting [11]) worked out at 87%; at BTK [8] (setting [12]) it was 60%.

Consider `C=CC(=O)Nc1cccc(Nc2nc(Nc3ccc(OCCOC)cc3)ncc2F)c1` [Compound I-182, N-(3-(5-fluoro-2-(4-(2-methoxyethoxy)phenylamino)pyrimidin-4-ylamino)phenyl)acrylamide], for which the “covalent modification of BTK by mass spectrometry” value at BTK [3] is recorded as “completely modify”. Besides, the EC50 in the test on Human naïve B cells fell in the range of 0.001 to 0.01 µM; in [4] (DHL4 B cell lymphoma cell line, read-out: EC50 (μM) DHL4), 1 to 10 µM; in test [4] (setting [9]), 1 to 10 µM; in test [4] (setting [10]) it was 1 to 10 µM. Also, the IC50 at JAK3 [2] is less than 0.01 µM. Further, the “>50% occupancy (concentration at which >50% of BTK is occupied)” value at BTK [5] is “A (greater than 1 nM)”. The “>90% occupancy (concentration at which >90% of BTK is occupied)” value on BTK [5] is given as “C (greater than 50 nM)”. Besides, at BTK [6], the “concentration at which at least 50% of BTK is occupied” value is reported as “greater than 10 nM”. Besides, the receptor occupancy at 30 mg/kg was found to be 99% on BTK [8] (setting [11]) and 79% at BTK [8] (setting [12]).
